Data on one compound can be found in patent US4022912A, “Use of 1-decarboxy-1-hydroxymethyl-PGE1 in therapeutic bronchodilation” (priority 1976, dated 1977).

SMILES strings stand for the structures. Where two headings read alike, the source gives them in different places.

One assay concerns bronchodilation. As to conditions: inhalational administration to guinea pigs; cited from earlier work.
In assay [1] the test system is tracheal smooth muscle. As to conditions: isolated from a human; cited from earlier work.
Assay [2] has as its system Histamine-Induced Bronchoconstriction. The experiment in a line: Inhibition of histamine-induced bronchoconstriction in the anesthetized guinea pig in vivo by intravenous administration. The following applies: Cavia porcellus, iv, i.v. 15 seconds prior to histamine. The procedure:
(§1) Male albino guinea pigs (400-600 g; Dunkin-Hartley Strain) were anesthetized with pentobarbitone sodium (60 mg/kg intraperitoneally).
(§2) Trachea, external jugular vein and carotid artery were cannulated for recording ventilation, intravenous administration of drugs, and blood pressure respectively. The animals were artificially respired throughout the experiment. Electrocardiograms were also recorded. Respiratory flow was charted on a twin-channel recorder fixed to an SE differential pressure transducer.
(§3) Histamine was administered intravenously at 5 minute intervals. The test drug was administered intravenously 15 seconds prior to histamine in order to inhibit bronchoconstriction.

The subject of assay [3] is Convulsions Induced by Inhaled Histamine. The experiment in a line: Delay of convulsions induced by inhaled histamine in conscious guinea pigs. In kind it is in vivo, guinea pig. The procedure: Conscious male albino guinea pigs (Dunkin-Hartley strain) weighing 200-300 g were placed (singly) in a 5-liter transparent chamber for 1 minute and subjected to an aerosol of vehicle or test drug in solution, plus histamine (1% w/v).
The time from the beginning of the administration of the aerosol to the start of the first convulsion (when the guinea pig is immediately removed from the aerosol) is the pre-convulsion time. Twenty-four hours later the general procedure was repeated. Guinea pigs treated with the test drug on the first day were treated with vehicle on the second day and vice versa in a cross-over design. Maximum time allowed in the aerosol was 10 minutes. An ultrasonic humidifier was used to produce the aerosol.

The test system of assay [4] is tracheal smooth muscle. The following applies: isolated from a guinea pig; cited from earlier work.
Assay [5] concerns Histamine-Induced Bronchoconstriction. The experiment in a line: Inhibition of intravenous histamine-induced bronchoconstriction in the anesthetized guinea pig by inhalational administration. In kind it is in vivo. The following applies: 0.001 μg/ml in stock solution aerosolized; inhalation. The procedure: as §1, §2, §3
Details of the procedure of this example are the same as those in preceding Example 2 with the exception that the test compounds were delivered in aerosol form into the trachea of the test aminals.

The test system of assay [6] is Guinea Pig Tracheal Tissue. The experiment in a line: Relaxation of guinea pig tracheal tissue in vitro. In kind it is cell-based. The following applies: Table B, standard error in parentheses. The procedure:
Male guinea pigs weighing 200-500 g were killed by a blow on the head. A 20 mm length of trachea was dissected from each of the animals, transferred to a petri dish containing Krebs' solution aerated with 95% O2 and 5% CO2 at 37° C., and cut longitudinally opposite the tracheal muscle. The tissue was then cut transversely three quarters of the distance across; a second cut in the opposite direction again three quarters of the distance across the tissue was made, and the procedure was continued for the whole tissue. The ends of the trachea were pulled to form a zig-zag shaped strip. The tracheal strips used in the experiment were approximately 30 mm when extended under 0.25-0.5 g load in a tissue bath. Cotton thread was tied to one end of the tissues, and linen thread to the other. The tissues were attached via the linen thread to a glass hook in a 5 ml isolated tissue bath containing Krebs' solution at 37° C. aerated with a mixture of 95% O2 and 5% CO2. The opposite ends were attached via cotton thread to an isotonic transducer. The load on the transducer lever was small, usually 0.3 g, with a range of 0.25-0.5 g; and the magnification high, 80-fold using an appropriate twin-channel pen recorder. A minimum of thirty minutes was allowed before applying a drug to the tissues. Drugs were then applied (in volumes of 0.5 ml) at thirty minute intervals, being in contact with the tissue for five minutes followed by an overflow washout time of twenty seconds.

Another assay relates to bronchial smooth muscle. The following applies: by inhalation or intravenously; cited from earlier work.

As for `CCCCC[C@H](O)/C=C/[C@H]1[C@H](O)CC(=O)[C@@H]1CCCCCCC(=O)O` [PGE1, 11α,15α-dihydroxy-9-oxo-13-trans-prostenoic acid], in the assay on bronchodilation, the “bronchodilation compared with isoprenaline” value is “superior to that induced by isoprenaline”. The “relaxation of isolated tracheal smooth muscle” value in the assay with tracheal smooth muscle [1] and in the assay with tracheal smooth muscle [4] was “relaxes tracheal smooth muscle” each time. For the same compound, the ED50 in assay [2] (Experiment No. 1, read-out: Dose I.V. inhibiting bronchoconstriction by 50% (ID50)) turned out to be 0.603 µg/kg; in assay [2] (Experiment No. 2, read-out: Dose I.V. inhibiting bronchoconstriction by 50% (ID50)), 0.966 µg/kg; in assay [2] (Experiment No. 3, read-out: Dose I.V. inhibiting bronchoconstriction by 50% (ID50)), 0.263 µg/kg; in assay [2] (Experiment No. 4, read-out: Dose I.V. inhibiting bronchoconstriction by 50% (ID50)), 0.864 µg/kg; in assay [2] (Experiment No. 5, read-out: Dose I.V. inhibiting bronchoconstriction by 50% (ID50)) it was 0.202 µg/kg; in assay [2] (mean of experiments 1-5, read-out: Dose I.V. inhibiting bronchoconstriction by 50% (ID50), Mean), 0.579 µg/kg. The “Prolongation of Preconvulsion Time” value in assay [3] (Expt. 1B, 0.50 μg/ml stock solution aerosolized, P <0.1) is 77 s; in assay [3] (Expt. 1B, 2.50 μg/ml stock solution aerosolized, P <0.001) it was 225 s; in assay [3] (Expt. 1B, 5.00 μg/ml stock solution aerosolized, N.S. at P ≤ 0.05), 139 s; in assay [3] (Expt. 1B, 10.00 μg/ml stock solution aerosolized, N.S. at P ≤ 0.05), 267 s; in assay [3] (Expt. 2B, 0.10 μg/ml stock solution aerosolized, N.S. at P ≤ 0.05), 495 s; in assay [3] (Expt. 2B, 0.50 μg/ml stock solution aerosolized, P <0.01), 274 s. In addition, the “Prolongation of Preconvulsion Time” value in assay [3] (Expt. 2B, 1.00 μg/ml stock solution aerosolized, P <0.01) was 294 s; in assay [3] (Expt. 2B, 5.00 μg/ml stock solution aerosolized, N.S. at P ≤ 0.05), 664 s. Also, in assay [5], the “Precent Inhibition of Histamine-Induced Bronchoconstriction” value came out at 6%. For the same compound, the “Relaxation (×80) (± S.E.)” value is 0 mm in assay [6] (0.001 μg/ml); 24 (1) mm in assay [6] (0.010 μg/ml); 46 (19) mm in assay [6] (0.100 μg/ml); 75 (17) mm in assay [6] (1.000 μg/ml); 75 (65) mm in assay [6] (10.000 μg/ml). Besides, the “relaxation of bronchial smooth muscle in vivo” value in the assay on bronchial smooth muscle was “relaxes bronchial smooth muscle in vivo”.
